# Read-outs that look alike come from different tables or passages of the source.
# What was measured:
# [1] = target: T1, human transthyretin (TTR) (Homo sapiens, UniProt P02766); test: FITC-T4 TTR-binding assay, initial (original) method
# Description: (§1) All incubations were performed at room temperature.
# (§2) Fluorescence enhancement was determined for each well by subtracting its relative fluorescence units (RFU) before TTR addition from its RFUs after TTR addition. The resulting values were normalized to percentages of the vehicle control. A concentration–response curve was fitted through the data using the same model as in the reporter gene assays.
# After 15 min of incubation, fluorescence was measured and fluorescence enhancement was calculated by subtracting RFU without TTR from RFU with TTR. Further data analysis was similar to the screening assays.
# [2] = target: T1, human transthyretin (TTR); test: FITC-T4 TTR-binding assay, screening method
# Description: as §1
# In the screening tests, 48 μl of Tris-HCl buffer (pH 8.0) was added to each well of black low-binding 96-well plates. Two microliters of each test compound dissolved in their respective solvent was added to each well and the plate was shaken at 600 rpm for 5 min. […] Fluorescence was measured again to check for possible autofluorescence or quenching by the test compound.
# as §2
# [3] = system: steroidogenesis in H295R cells; assay type: cell-based, human; conditions: for effect on steroid hormone levels compared with vehicle-treated controls: highest noncytotoxic exposure concentration, 48 h; for 11 deoxycorticosterone mean fold change / 17aOH progesterone mean fold change / 17b E2 mean fold change / E1 mean fold change / androstenedione mean fold change / corticosterone mean fold change / cortisol mean fold change / testosterone mean fold change: H295R
# Description: All experiments were performed using cells in passages 5 to 10. First, the highest noncytotoxic concentration (<10% decrease in viability) was determined for each compound with MTT assays. Next, the levels of 13 steroid hormones were determined in the medium after exposure of the H295R cells to the highest noncytotoxic concentration using LC-MS/MS. These concentrations were tested in triplicate (n = 3) in 3 independent experiments (N = 3), and all 9 samples were measured in LC-MS/MS. […] These dilution series were tested in 3 independent experiments (N = 3), with triplicate exposures in each of these experiments (n = 3). Supernatants of the triplicate exposures per experiment were pooled after the 48 h of exposure and the 3 pooled samples were measured with LC-MS/MS. This was done to keep the number of LC-MS/MS measurements manageable.
# The exposure medium was prepared by diluting stock solutions 1,000× in the cell culture medium to obtain a final concentration of 0.1% of the solvent. Exposure was started by replacing cell culture medium with the exposure medium. […] On a separate quality control plate, cells were exposed to 10 μM forskolin (Sigma-Aldrich) and 1 μM prochloraz (Sigma-Aldrich) to serve as positive control for increased and decreased steroid hormone secretion, respectively. Exposure was started by replacing the culture medium in the cell culture plates with the exposure medium.
# After 48 h of exposure, the supernatant medium from each well was transferred to the wells of a clean 48-well plate, and that plate was stored at −80 °C for later steroid measurement. MTT assays were performed by adding 500 μl of 0.5 mg/ml MTT (3-(4,5-dimethylthiazol-2-yl)-2,5-diphenyltetrazolium bromide; Sigma-Aldrich) solution in medium to each well of the 24-well cell culture plate and incubating for 1 h at 37 °C with 5% CO2. After incubation, the MTT solution was discarded and 500 μl of DMSO was added to each well to lyse the cells and dissolve the formazan crystals. Plates were shaken at 700 rpm for 10 min and absorbance was measured at 560 nm wavelength.
# Hormones were concentrated from supernatants by solid phase extraction using Bond Elut Plexa cartridges, 30 mg sorbent, 1.8 ml (Agilent Technologies, Santa Clara, CA, United States). The cartridges were conditioned with 1 ml of 0.5% formic acid in methanol, and subsequent addition of 1 ml of 0.5% formic acid in water. A mix of 100 μl of H295R medium sample in 1 ml of 2% formic acid in water and 50 μl of isotopically labeled internal standards mix (Table S1) was loaded on the cartridges. These were then washed with 1 ml of water followed by 1 ml of water–methanol mixture (70:30, v/v). Cartridges were dried by vacuum and the hormones were eluted with 700 μl of methanol into 96-well-deep well polypropylene plates. Eluates were evaporated to dryness during approximately 2 h in a refrigerated CentriVap vacuum concentrator and reconstituted in 150 μl of water–methanol mixture (1:1, v/v). Additionally, a serial 12-point dilution series of a mix of native steroid hormones was prepared to fit a calibration curve in order to quantify steroid concentrations.
# The steroid hormones were separated prior to MS measurements on a Kinetex C18 LC Column (2.6 μm, 100 × 2.1 mm; Phenomenex, CA, United States) coupled to an Exion LC system (SCIEX, Framingham, MA, United States). The mobile phase consisted of 0.2 mM NH4F in water and pure methanol and was delivered at a flow rate of 0.6 ml/min in a gradient elution mode. The injection volume was 10 μl.
# The LC-MS/MS raw data were processed using AB Sciex OS Analyst version 1.6.2 (SCIEX, Framingham, MA, United States) to calculate fold changes by dividing the measured hormone concentrations by the hormone concentrations in the vehicle controls. The fold changes were used to fit a concentration–response curve in GraphPad Prism using the same model as in the reporter gene assays, and the ECIR1.5 was estimated for each compound.
# [4] = initial method, 110 nM FITC-T4, 30 nM TTR
# [5] = initial method, 110 nM FITC-T4, 30 nM TTR, read-out: IC50 competing with FITC-T4 for binding to TTR
# [6] = screening method, read-out: IC50 TTR-binding assay, Screening Method
smiles,measurement,setting,value
"O=S(=O)(O)C(F)(F)C(F)(F)C(F)(F)C(F)(F)C(F)(F)C(F)(F)C(F)(F)C(F)(F)F [PFOS, Perfluorooctane sulfonic acid]",% FITCT4 bound to TTR,[1]; 0.1 uM,75.2122%
same,% FITCT4 bound to TTR,[1]; 0.3 uM,36.6572%
same,% FITCT4 bound to TTR,[1]; 1 uM,10.1163%
same,% FITCT4 bound to TTR,[1]; 3 uM,2.093%
same,% FITCT4 bound to TTR,[1]; 10 uM,0.8236%
same,% FITCT4 bound to TTR,[1]; 30 uM,1.548%
same,% FITCT4 bound to TTR,[1]; 100 uM,-1.121%
same,IC10 competing with FITC-T4 for binding to TTR,[1]; [4],47 nM
same,IC50,[1]; [5],210 nM
same,IC50,[2]; [6],190 nM
"O=S(=O)(O)C(F)(F)C(F)(F)C(F)(F)C(F)(F)C(F)(F)C(F)(F)F [PFHxS, Perfluorohexane sulfonic acid]",IC50,[1],270 nM
same,% FITCT4 bound to TTR,[1]; 0.1 uM,74.2951%
same,% FITCT4 bound to TTR,[1]; 0.3 uM,47.4669%
same,% FITCT4 bound to TTR,[1]; 1 uM,17.2866%
same,% FITCT4 bound to TTR,[1]; 3 uM,8.444%
same,% FITCT4 bound to TTR,[1]; 10 uM,4.647%
same,% FITCT4 bound to TTR,[1]; 30 uM,2.41%
same,% FITCT4 bound to TTR,[1]; 100 uM,0.6647%
same,IC10 competing with FITC-T4 for binding to TTR,[1]; [4],34 nM
same,IC50,[2],240 nM
CC(C)Nc1nc(N)nc(Cl)n1 [Deethyl-atrazine],effect on steroid hormone levels compared with vehicle-treated controls,[3],"increased levels of progestogens, androgens, estrogens, and corticosteroids"
CCNc1nc(Cl)nc(NC(C)C)n1 [Atrazine],11 deoxycorticosterone mean fold change,[3]; concentration 0.3 uM,1.225 fold change
same,17aOH progesterone mean fold change,[3]; concentration 0.3 uM,1.062 fold change
same,17b E2 mean fold change,[3]; concentration 0.3 uM,1.11 fold change
same,E1 mean fold change,[3]; concentration 0.3 uM,0.9324 fold change
same,androstenedione mean fold change,[3]; concentration 0.3 uM,1.124 fold change
same,corticosterone mean fold change,[3]; concentration 0.3 uM,1.264 fold change
same,cortisol mean fold change,[3]; concentration 0.3 uM,1.18 fold change
same,testosterone mean fold change,[3]; concentration 0.3 uM,1.092 fold change
same,11 deoxycorticosterone mean fold change,[3]; concentration 1 uM,1.279 fold change
same,17aOH progesterone mean fold change,[3]; concentration 1 uM,1.128 fold change
same,17b E2 mean fold change,[3]; concentration 1 uM,1.2477 fold change
same,E1 mean fold change,[3]; concentration 1 uM,1.144 fold change
same,androstenedione mean fold change,[3]; concentration 1 uM,1.188 fold change
same,corticosterone mean fold change,[3]; concentration 1 uM,1.609 fold change
same,cortisol mean fold change,[3]; concentration 1 uM,1.21 fold change
same,testosterone mean fold change,[3]; concentration 1 uM,1.129 fold change
same,11 deoxycorticosterone mean fold change,[3]; concentration 3 uM,1.291 fold change
same,17aOH progesterone mean fold change,[3]; concentration 3 uM,1.151 fold change
same,17b E2 mean fold change,[3]; concentration 3 uM,1.487 fold change
same,E1 mean fold change,[3]; concentration 3 uM,1.415 fold change
same,androstenedione mean fold change,[3]; concentration 3 uM,1.193 fold change
same,corticosterone mean fold change,[3]; concentration 3 uM,1.535 fold change
same,cortisol mean fold change,[3]; concentration 3 uM,1.258 fold change
same,testosterone mean fold change,[3]; concentration 3 uM,1.198 fold change
same,11 deoxycorticosterone mean fold change,[3]; concentration 10 uM,1.493 fold change
same,17aOH progesterone mean fold change,[3]; concentration 10 uM,1.43 fold change
same,17b E2 mean fold change,[3]; concentration 10 uM,2.183 fold change
same,E1 mean fold change,[3]; concentration 10 uM,2.232 fold change
same,androstenedione mean fold change,[3]; concentration 10 uM,1.47 fold change
same,corticosterone mean fold change,[3]; concentration 10 uM,2.296 fold change
same,cortisol mean fold change,[3]; concentration 10 uM,1.583 fold change
same,testosterone mean fold change,[3]; concentration 10 uM,1.47 fold change
same,11 deoxycorticosterone mean fold change,[3]; concentration 30 uM,1.712 fold change
same,17aOH progesterone mean fold change,[3]; concentration 30 uM,1.877 fold change
same,17b E2 mean fold change,[3]; concentration 30 uM,2.732 fold change
same,E1 mean fold change,[3]; concentration 30 uM,3.048 fold change
same,androstenedione mean fold change,[3]; concentration 30 uM,1.542 fold change
same,corticosterone mean fold change,[3]; concentration 30 uM,2.489 fold change
same,cortisol mean fold change,[3]; concentration 30 uM,1.7 fold change
same,testosterone mean fold change,[3]; concentration 30 uM,1.645 fold change
same,11 deoxycorticosterone mean fold change,[3]; concentration 100 uM,2.107 fold change
same,17aOH progesterone mean fold change,[3]; concentration 100 uM,2.139 fold change
same,17b E2 mean fold change,[3]; concentration 100 uM,2.968 fold change
same,E1 mean fold change,[3]; concentration 100 uM,3.994 fold change
same,androstenedione mean fold change,[3]; concentration 100 uM,1.612 fold change
same,corticosterone mean fold change,[3]; concentration 100 uM,3.324 fold change
same,cortisol mean fold change,[3]; concentration 100 uM,2.203 fold change
same,testosterone mean fold change,[3]; concentration 100 uM,1.74 fold change
same,effect on steroid hormone levels compared with vehicle-treated controls,[3],"increased levels of progestogens, androgens, estrogens, and corticosteroids"
"O=C(O)C(F)(OC(F)(F)C(F)(F)C(F)(F)F)C(F)(F)F (centres unmarked) [GenX, Hexafluoropropylene oxide dimer acid]",% FITCT4 bound to TTR,[1]; 0.1 uM,92.2482%
same,% FITCT4 bound to TTR,[1]; 0.3 uM,91.7718%
same,% FITCT4 bound to TTR,[1]; 1 uM,89.1133%
same,% FITCT4 bound to TTR,[1]; 3 uM,86.8896%
same,% FITCT4 bound to TTR,[1]; 10 uM,74.6529%
same,% FITCT4 bound to TTR,[1]; 30 uM,53.6966%
same,% FITCT4 bound to TTR,[1]; 100 uM,24.7329%
same,IC10 competing with FITC-T4 for binding to TTR,[1]; [4],1900 nM
same,IC50,[1]; [5],31900 nM
same,IC50,[2]; [6],30300 nM
